Here are results for 10 molecules from ChEMBL document CHEMBL1201862, “PubChem BioAssay data set” (2004).

Some test systems named below: 786-0; HCC 2998; HCT-116; HOP-62; HT-29; LOX IMVI; M19-MEL; NCI-H23; NCI-H460; NCI-H522; SK-MEL-2; SNB-75; HL-60; RPMI-8226; MCF7; MDA-MB-231; MDA-N; NCI/ADR-RES; PC-3; T47D.
Common to all, as to assay: inhibition of tumour cell growth, NCI panel, 48 h

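Compound exposure: 48 hours, 5 concentrations, 96-well plates. GI50 = concentration required for 50% inhibition of growth.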 Active and inactive are the calls of the source. Cut-off read from the data, not from the text of the source: active = GI50 up to about 1.1 µM and inactive = higher. Residues, ends and D or L forms follow the SMILES beside them. *: point of attachment. Boc = CC(C)(C)OC(=O)*; OBn = c1ccc(CO*)cc1; Bn = c1ccc(C*)cc1

On to `O=C1OC2CCCC[C@@H]2C2C[C@]34CCCCC3[C@@H](C(=O)O4)C12` (stereo partly specified), for which the GI50 in the test on 786-0, with HCC 2998, in the test on HCT-116, in the test on HOP-62, in the test with HT-29 and in the test on LOX IMVI was > 100 µM (inactive) each time. Further, the GI50 in the test on M19-MEL, with NCI-H23, in the test on NCI-H460, in the test on NCI-H522, in the test on SK-MEL-2 and in the test on SNB-75 was > 100 µM (inactive) throughout.
With `Cc1nn(C(=O)CC(=O)Nc2ccccc2Cl)c(C)c1/N=N/c1ccccc1Cl`, the GI50 with 786-0, with HCC 2998, in the test on HCT-116, in the test with HL-60, in the test with HOP-62 and with HT-29 was > 100 µM (inactive) throughout. In addition, the GI50 in the test with LOX IMVI was > 100 µM (inactive); in the test with M19-MEL it was > 100 µM (inactive); in the test with NCI-H23 it was > 100 µM (inactive); in the test on NCI-H460, > 100 µM (inactive); in the test on SK-MEL-2 it was > 100 µM (inactive); in the test on SNB-75, 82 µM (inactive).
On to `O=C(c1ccc(Cl)cc1)N(C(=S)N1CCN(c2ccccc2)CC1)c1ccccc1`, for which the GI50 with 786-0, in the test with HCT-116, in the test on HL-60, with HOP-62, with HT-29 and in the test with LOX IMVI was > 100 µM (inactive) each time. The GI50 in the test on M19-MEL, in the test on NCI-H23, in the test with NCI-H460, in the test on NCI-H522, in the test with RPMI-8226 and with SK-MEL-2 was > 100 µM (inactive) throughout. For the same molecule, the GI50 in the test on SNB-75 was > 100 µM (inactive).
Regarding `O=C(CC(=O)N1N=C(N2c3ccccc3Sc3ccccc32)CC1c1ccccc1)Nc1ccc(Cl)cc1` (stereo unspecified), the GI50 in the test on 786-0 is > 100 µM (inactive); in the test on HCC 2998, > 100 µM (inactive); with HCT-116, > 100 µM (inactive); in the test with HL-60 it was > 10 µM (inactive); with HOP-62, > 100 µM (inactive); in the test with HT-29 it was > 100 µM (inactive). The GI50 in the test on LOX IMVI, in the test with M19-MEL, with NCI-H23, with NCI-H460 and with SNB-75 was > 100 µM (inactive) throughout.
For `O=C(Nc1nc2ncn(CC(COc3ccccc3)OC(=O)c3ccccc3)c2c(=O)[nH]1)c1ccccc1` (stereo unspecified), the GI50 in the test on 786-0 was > 100 µM (inactive); in the test with HCT-116, > 100 µM (inactive); in the test with HL-60, < 0.01 µM (active); in the test with HOP-62, > 100 µM (inactive); in the test with HT-29, > 100 µM (inactive); in the test on LOX IMVI it was > 100 µM (inactive). For the same molecule, the GI50 in the test on M19-MEL, with NCI-H522, in the test with RPMI-8226, in the test with SK-MEL-2 and with SNB-75 was > 100 µM (inactive) each time.
With `C[N+]1(C)C/C(=C\c2ccccc2)C(=O)/C(=C/c2ccccc2)C1`, the GI50 in the test with 786-0, in the test with HCC 2998, in the test with HCT-116, with HL-60, in the test with HOP-62 and in the test with HT-29 was > 100 µM (inactive) in each case. In addition, the GI50 was 32.7 µM (inactive) in the test on M19-MEL; > 100 µM (inactive) in the test with NCI-H23; > 100 µM (inactive) with NCI-H460; 51.2 µM (inactive) with RPMI-8226; > 100 µM (inactive) in the test with SNB-75.
Regarding `NCCNCCNCc1c2ccccc2c(CNCCNCCN)c2ccccc12`, the GI50 in the test with 786-0 is 38.6 µM (inactive); in the test on HCC 2998, 54 µM (inactive); in the test on HCT-116, 38 µM (inactive); with HL-60 it was 46.1 µM (inactive); in the test on HOP-62, 60.3 µM (inactive); in the test on HT-29, 40.2 µM (inactive). In addition, the GI50 was 70.6 µM (inactive) in the test on LOX IMVI; 59 µM (inactive) in the test with M19-MEL; > 100 µM (inactive) with NCI-H23; 31.2 µM (inactive) with NCI-H460; 29.6 µM (inactive) with RPMI-8226; > 100 µM (inactive) in the test with SK-MEL-2.
As to `COc1ccc([C@H]2CC(=O)C[C@H](c3ccc(OC)cc3)C23C(=O)c2ccccc2C3=O)cc1`, the GI50 in the test on 786-0 is 5.57 µM (inactive); in the test on HCC 2998, 8.55 µM (inactive); in the test on HCT-116, 4.46 µM (inactive); in the test on HL-60 it was 2.33 µM (inactive); in the test with HOP-62 it was 6.25 µM (inactive); in the test on HT-29 it was 3.46 µM (inactive). The GI50 in the test on LOX IMVI is 4.16 µM (inactive); in the test with MCF7, 7.06 µM (inactive); with MDA-MB-231 it was 2.39 µM (inactive); in the test with MDA-N, 2.07 µM (inactive); with NCI-H23, 26.1 µM (inactive); in the test with NCI-H460 it was 3.65 µM (inactive). Also, the GI50 was 3.16 µM (inactive) with NCI-H522; 1.94 µM (inactive) in the test on NCI/ADR-RES; 4.21 µM (inactive) in the test on PC-3; 4.54 µM (inactive) with RPMI-8226; 3.3 µM (inactive) in the test on SK-MEL-2; 2.9 µM (inactive) in the test with SNB-75. Further, the GI50 in the test with T47D was 4.31 µM (inactive).
Regarding `CSC1(C)CC2C(CC1N1CCCCC1)C2(C)C` (stereo unspecified), the GI50 in the test on 786-0, in the test with HCC 2998, in the test on HCT-116, in the test on HL-60, with HT-29 and in the test with M19-MEL was > 100 µM (inactive) in each case. Moreover, the GI50 in the test with NCI-H23, with NCI-H460, with RPMI-8226, in the test with SK-MEL-2 and with SNB-75 was > 100 µM (inactive) throughout.
Consider `CC(C)CC(NC(=O)C(Cc1ccccc1)NC(=O)C(COCc1ccccc1)NC(=O)OC(C)(C)C)C(=O)OCc1ccccc1` (stereo not drawn) (Boc-Ser(Bn)-Phe-Leu-OBn; configuration not given here), for which the GI50 was 17.1 µM (inactive) with 786-0; 14.7 µM (inactive) in the test on HCC 2998; 18.5 µM (inactive) in the test on HCT-116; 4.01 µM (inactive) in the test with HL-60; 49.4 µM (inactive) in the test with HOP-62; 15.9 µM (inactive) with HT-29. Moreover, the GI50 in the test on LOX IMVI was 19.8 µM (inactive); in the test with MCF7 it was 37.9 µM (inactive); in the test on MDA-MB-231, 27.1 µM (inactive); in the test on MDA-N, 69 µM (inactive); in the test with NCI-H23, 18.5 µM (inactive); in the test on NCI-H460, 11.9 µM (inactive). Moreover, the GI50 in the test with NCI-H522 is 13.8 µM (inactive); in the test with NCI/ADR-RES, > 100 µM (inactive); in the test with PC-3, 22.3 µM (inactive); with RPMI-8226, 6.95 µM (inactive); with SK-MEL-2 it was 56.6 µM (inactive); in the test with SNB-75 it was 22.1 µM (inactive). Besides, in the test on T47D, the GI50 is > 100 µM (inactive).
